Measurements from patent US10525041B2, “Fluoroalkyl-substituted aryltriazole derivatives and uses thereof” (BAYER PHARMA AKTIENGESELLSCHAFT, priority 2016, dated 2020).

Key:
human V1a receptor = target: T1, human V1a receptor (Homo sapiens, UniProt P37288); assay: Cellular in vitro assay for vasopressin receptor activity, V1a cell line (aequorin luminescence); assay type: cell-based; conditions: for IC50: CHO cell line transfected with human V1a receptor, agonist [Arg8]-vasopressin at EC50 concentration, read-out: IC50hV1a; for ratio IC50 hV2/hV1a: ratio of the IC50 on human V2 to the IC50 on human V1a
T1 construct: expressed in transfected cells; host or cells: CHO K1 (ATCC), also stably transfected with a modified aequorin
Method in brief: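 CHO K1 cells stably expressing human V1a receptor with aequorin photoprotein, loaded overnight with coelenterazine. Compounds preincubated 10 min at various concentrations, then challenged with [Arg^8]-vasopressin at EC50 concentration. Calcium-driven luminescence read immediately; IC50 values derived.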

human V2 receptor = target: T2, human V2 receptor (Homo sapiens, UniProt P30518); assay: Cellular in vitro assay for vasopressin receptor activity, V2 cell line (CRE-luciferase); assay type: cell-based; conditions: CHO cell line transfected with human V2 receptor; agonist [Arg8]-vasopressin at EC50 concentration, 3 hours; read-out: IC50hV2
T2 construct: expressed in transfected cells; host or cells: CHO K1 (ATCC) line expressing firefly luciferase under a CRE-responsive promoter
T2 sequence (P30518 whole entry): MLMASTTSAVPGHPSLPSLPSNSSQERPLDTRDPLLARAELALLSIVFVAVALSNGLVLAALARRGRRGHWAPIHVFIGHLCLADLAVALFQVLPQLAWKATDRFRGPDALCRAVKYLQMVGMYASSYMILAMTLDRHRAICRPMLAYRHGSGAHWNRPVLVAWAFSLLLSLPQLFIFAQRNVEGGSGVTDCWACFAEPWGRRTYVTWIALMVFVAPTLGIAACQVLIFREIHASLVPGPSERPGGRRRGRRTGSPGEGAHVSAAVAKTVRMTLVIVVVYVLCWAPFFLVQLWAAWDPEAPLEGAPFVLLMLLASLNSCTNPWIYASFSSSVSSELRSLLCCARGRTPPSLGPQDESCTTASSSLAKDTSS

T1 sequence (P37288 whole entry): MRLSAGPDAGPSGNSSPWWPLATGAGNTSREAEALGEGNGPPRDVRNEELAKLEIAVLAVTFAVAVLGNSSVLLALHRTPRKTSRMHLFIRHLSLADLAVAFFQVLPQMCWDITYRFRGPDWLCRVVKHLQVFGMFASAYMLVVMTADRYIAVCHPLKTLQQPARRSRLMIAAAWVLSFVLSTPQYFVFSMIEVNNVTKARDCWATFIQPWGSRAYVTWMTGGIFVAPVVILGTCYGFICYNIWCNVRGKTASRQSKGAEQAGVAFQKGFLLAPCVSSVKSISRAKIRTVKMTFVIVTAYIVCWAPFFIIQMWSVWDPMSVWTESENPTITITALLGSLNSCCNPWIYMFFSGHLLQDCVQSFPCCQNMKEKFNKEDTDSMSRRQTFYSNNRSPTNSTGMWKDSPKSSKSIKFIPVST

| IC50 (human V1a receptor) [nM] | ratio IC50 hV2/hV1a (human V1a receptor) | IC50 (human V2 receptor) [nM] | SMILES |
| --- | --- | --- | --- |
| 2.95 | 2.3 | 6.9 | CC(F)(F)c1nc(Cn2nc(-c3ccc(Cl)cc3)n(C[C@H](O)C(F)(F)F)c2=O)nn1-c1c(F)cccc1Cl [Example 69, 2-{[1-(2-Chloro-6-fluorophenyl)-5-(1,1-difluoroethyl)-1H-1,2,4-triazol-3-yl]methyl}-5-(4-chlorophenyl)-4-[(2S)-3,3,3-trifluoro-2-hydroxypropyl]-2,4-dihydro-3H-1,2,4-triazol-3-one] |
| 1.75 | 1.3 | 2.27 | CC(F)(F)c1nc(Cn2nc(-c3ccc(Cl)cc3)n(C[C@H](O)C(F)(F)F)c2=O)nn1-c1c(F)cccc1F [Example 70, 5-(4-Chlorophenyl)-2-{[5-(1,1-difluoroethyl)-1-(2,6-difluorophenyl)-1H-1,2,4-triazol-3-yl]methyl}-4-[(2S)-3,3,3-trifluoro-2-hydroxypropyl]-2,4-dihydro-3H-1,2,4-triazol-3-one] |
| 5.3 | 0.8 | 4.27 | Cc1cccc(C)c1-n1nc(Cn2nc(-c3ccc(Cl)cc3)n(C[C@H](O)C(F)(F)F)c2=O)nc1C(C)(F)F [Example 71, 5-(4-Chlorophenyl)-2-{[5-(1,1-difluoroethyl)-1-(2,6-dimethylphenyl)-1H-1,2,4-triazol-3-yl]methyl}-4-[(2S)-3,3,3-trifluoro-2-hydroxypropyl]-2,4-dihydro-3H-1,2,4-triazol-3-one] |
| 31 | 1.1 | 34.7 | CC(C)c1ccccc1-n1nc(Cn2nc(-c3ccc(Cl)cc3)n(C[C@H](O)C(F)(F)F)c2=O)nc1C(C)(F)F [Example 72, 5-(4-Chlorophenyl)-2-({5-(1,1-difluoroethyl)-1-[2-(propan-2-yl)phenyl]-1H-1,2,4-triazol-3-yl}methyl)-4-[(2S)-3,3,3-trifluoro-2-hydroxypropyl]-2,4-dihydro-3H-1,2,4-triazol-3-one] |
| 41 | 0.3 | 11.9 | CCc1cccc(C)c1-n1nc(Cn2nc(-c3ccc(Cl)cc3)n(C[C@H](O)C(F)(F)F)c2=O)nc1C(C)(F)F [Example 73, 5-(4-Chlorophenyl)-2-{[5-(1,1-difluoroethyl)-1-(2-ethyl-6-methylphenyl)-1H-1,2,4-triazol-3-yl]methyl}-4-[(2S)-3,3,3-trifluoro-2-hydroxypropyl]-2,4-dihydro-3H-1,2,4-triazol-3-one] |
| 1.4 | 0.7 | 0.98 | CSc1ccccc1-n1nc(Cn2nc(-c3ccc(Cl)cc3)n(C[C@H](O)C(F)(F)F)c2=O)nc1C(C)(F)F [Example 74, 5-(4-Chlorophenyl)-2-({5-(1,1-difluoroethyl)-1-[2-(methylsulfanyl)phenyl]-1H-1,2,4-triazol-3-yl}methyl)-4-[(2S)-3,3,3-trifluoro-2-hydroxypropyl]-2,4-dihydro-3H-1,2,4-triazol-3-one] |
| 0.85 | 6.4 | 5.4 | O=c1n(Cc2nc(C(F)(F)C3(O)CCCC3)n(-c3ccccc3Cl)n2)nc(-c2ccc(Cl)cc2)n1C[C@H](O)C(F)(F)F [Example 75, 5-(4-Chlorophenyl)-2-({1-(2-chlorophenyl)-5-[difluoro(1-hydroxycyclopentyl)methyl]-1H-1,2,4-triazol-3-yl}methyl)-4-[(2S)-3,3,3-trifluoro-2-hydroxypropyl]-2,4-dihydro-3H-1,2,4-triazol-3-one] |
| 0.91 | 3.5 | 3.15 | NCC(F)(F)c1nc(Cn2nc(-c3ccc(Cl)cc3)n(C[C@H](O)C(F)(F)F)c2=O)nn1-c1ccccc1Cl.O=CO [Example 76, 2-{[5-(2-Amino-1,1-difluoroethyl)-1-(2-chlorophenyl)-1H-1,2,4-triazol-3-yl]methyl}-5-(4-chlorophenyl)-4-[(2S)-3,3,3-trifluoro-2-hydroxypropyl]-2,4-dihydro-3H-1,2,4-triazol-3-one] |
| 1.4 | 5.0 | 7.03 | O=c1n(Cc2nc(C(F)(F)C3CCOCC3)n(-c3ccccc3Cl)n2)nc(-c2ccc(Cl)cc2)n1C[C@H](O)C(F)(F)F [Example 77, 5-(4-Chlorophenyl)-2-({1-(2-chlorophenyl)-5-[difluoro(tetrahydro-2H-pyran-4-yl)methyl]-1H-1,2,4-triazol-3-yl}methyl)-4-[(2S)-3,3,3-trifluoro-2-hydroxypropyl]-2,4-dihydro-3H-1,2,4-triazol-3-one] |
| 49.6 | 0.1 | 4.75 | O=c1n(Cc2nc(C(F)(F)F)n(-c3cccc(F)c3)n2)nc(-c2ccc(Cl)cc2)n1C[C@H](O)C(F)(F)F [Example 78, 5-(4-Chlorophenyl)-2-{[1-(3-fluorophenyl)-5-(trifluoromethyl)-1H-1,2,4-triazol-3-yl]methyl}-4-[(2S)-3,3,3-trifluoro-2-hydroxypropyl]-2,4-dihydro-3H-1,2,4-triazol-3-one] |
| 0.78 | 3.3 | 2.58 | O=c1n(Cc2nc(C(F)(F)F)n(-c3ccccc3Cl)n2)nc(-c2ccc(Cl)cc2)n1C[C@H](O)C(F)(F)F [Example 79, 5-(4-Chlorophenyl)-2-{[1-(2-chlorophenyl)-5-(trifluoromethyl)-1H-1,2,4-triazol-3-yl]methyl}-4-[(2S)-3,3,3-trifluoro-2-hydroxypropyl]-2,4-dihydro-3H-1,2,4-triazol-3-one] |
